Experimental data: patent publication US20080051387A1, “TETRAHYDROPYRIDO[3,4-D]PYRIMIDINES AND RELATED ANALOGUES” (priority 2006, published 2008)

Target: T1, chimeric human H3 receptor (Homo sapiens, UniProt Q9Y5N1)
T1 construct: rat Galpha-i2 (Gnai2, rat); made in house; host or cells: Sf9 insect cells (baculovirus); P2 membranes
Assay: Chimeric human H3 receptor screening GTP binding assay (inhibition of histamine-stimulated GTP-gamma35S binding, Example 8)
Assay type: biochemical
Conditions: 1 h; assay of Example 8; symbol "!" in column headed Ki; read-out: percent inhibition of agonist-induced GTP-gammaS binding to H3
Outline: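 Compound tested at 4 μM against 1 μM histamine stimulation; 125 pM GTP-gamma35S binding measured by filtration and scintillation after 60 min at room temperature. Membranes from Sf9 cells expressing chimeric human H3 plus G-protein subunits, in Tris pH 7.4/NaCl/MgCl2/GDP buffer; values are % inhibition after nonspecific subtraction.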

T1 sequence (Q9Y5N1 with tags, fused parts or gaps): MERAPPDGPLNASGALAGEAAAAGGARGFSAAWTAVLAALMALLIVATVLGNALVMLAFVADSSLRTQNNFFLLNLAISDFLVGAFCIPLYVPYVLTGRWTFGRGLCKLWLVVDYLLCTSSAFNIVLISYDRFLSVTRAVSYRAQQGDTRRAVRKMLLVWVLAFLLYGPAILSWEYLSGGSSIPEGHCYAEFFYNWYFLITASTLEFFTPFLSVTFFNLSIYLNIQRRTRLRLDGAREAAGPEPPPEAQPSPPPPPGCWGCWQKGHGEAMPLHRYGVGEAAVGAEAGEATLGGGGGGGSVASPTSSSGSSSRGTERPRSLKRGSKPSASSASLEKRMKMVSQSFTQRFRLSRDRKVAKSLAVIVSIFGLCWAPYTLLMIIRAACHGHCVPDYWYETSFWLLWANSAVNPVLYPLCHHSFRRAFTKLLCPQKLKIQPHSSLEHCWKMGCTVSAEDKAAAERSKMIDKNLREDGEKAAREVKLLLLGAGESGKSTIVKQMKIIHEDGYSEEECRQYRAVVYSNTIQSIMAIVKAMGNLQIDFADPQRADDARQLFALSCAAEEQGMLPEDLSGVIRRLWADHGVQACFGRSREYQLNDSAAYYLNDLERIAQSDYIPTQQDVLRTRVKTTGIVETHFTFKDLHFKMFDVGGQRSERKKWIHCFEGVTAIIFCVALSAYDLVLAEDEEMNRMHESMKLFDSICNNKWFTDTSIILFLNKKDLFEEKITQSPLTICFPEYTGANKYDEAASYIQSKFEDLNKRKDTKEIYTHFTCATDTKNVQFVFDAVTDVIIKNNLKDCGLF

Inhibition at 4 µM, ≥ 90%:
O=C(C1COc2ccccc2O1)N1CCc2cnc(N3CCN(C4CCC4)CC3)nc2CC1 (stereo not drawn) [Compound 341, 2-(4-cyclobutylpiperazin-1-yl)-7-(2,3-dihydro-1,4-benzodioxin-2-ylcarbonyl)-6,7,8,9-tetrahydro-5H-pyrimido[4,5-d]azepine]
CC(CC(=O)N1CCc2cnc(N3CCN(C4CCC4)CC3)nc2CC1)Sc1ccc(Cl)cc1 (stereo not drawn) [Compound 342, 7-{3-[(4-chlorophenyl)thio]butanoyl}-2-(4-cyclobutylpiperazin-1-yl)-6,7,8,9-tetrahydro-5H-pyrimido[4,5-d]azepine]
CC(Oc1ccc(OC(F)(F)F)cc1)C(=O)N1CCc2cnc(N3CCN(C4CCC4)CC3)nc2CC1 (stereo not drawn) [Compound 343, 2-(4-cyclobutylpiperazin-1-yl)-7-{2-[4-(trifluoromethoxy)phenoxy]propanoyl}-6,7,8,9-tetrahydro-5H-pyrimido[4,5-d]azepine]
CC(Oc1ccccc1Cl)C(=O)N1CCc2cnc(N3CCN(C4CCC4)CC3)nc2CC1 (stereo not drawn) [Compound 344, 7-[2-(2-chlorophenoxy)propanoyl]-2-(4-cyclobutylpiperazin-1-yl)-6,7,8,9-tetrahydro-5H-pyrimido[4,5-d]azepine]
CC(Oc1ccc(Cl)cc1)C(=O)N1CCc2cnc(N3CCN(C4CCC4)CC3)nc2CC1 (stereo not drawn) [Compound 345, 7-[2-(4-chlorophenoxy)propanoyl]-2-(4-cyclobutylpiperazin-1-yl)-6,7,8,9-tetrahydro-5H-pyrimido[4,5-d]azepine]
Cc1ccccc1OC(C)C(=O)N1CCc2cnc(N3CCN(C4CCC4)CC3)nc2CC1 (stereo not drawn) [Compound 346, 2-(4-cyclobutylpiperazin-1-yl)-7-[2-(2-methylphenoxy)propanoyl]-6,7,8,9-tetrahydro-5H-pyrimido[4,5-d]azepine]
Cc1cccc(OC(C)C(=O)N2CCc3cnc(N4CCN(C5CCC5)CC4)nc3CC2)c1C (stereo not drawn) [Compound 347, 2-(4-cyclobutylpiperazin-1-yl)-7-[2-(2,3-dimethylphenoxy)propanoyl]-6,7,8,9-tetrahydro-5H-pyrimido[4,5-d]azepine]
CCC(C(=O)N1CCc2cnc(N3CCN(C4CCC4)CC3)nc2CC1)c1ccccc1 (stereo not drawn) [Compound 348, 2-(4-cyclobutylpiperazin-1-yl)-7-(2-phenylbutanoyl)-6,7,8,9-tetrahydro-5H-pyrimido[4,5-d]azepine]
CC(C)C(C(=O)N1CCc2cnc(N3CCN(C4CCC4)CC3)nc2CC1)c1ccccc1 (stereo not drawn) [Compound 349, 2-(4-cyclobutylpiperazin-1-yl)-7-(3-methyl-2-phenylbutanoyl)-6,7,8,9-tetrahydro-5H-pyrimido[4,5-d]azepine]
CCC(CC)(C(=O)N1CCc2cnc(N3CCN(C4CCC4)CC3)nc2CC1)c1ccccc1 [Compound 350, 2-(4-cyclobutylpiperazin-1-yl)-7-(2-ethyl-2-phenylbutanoyl)-6,7,8,9-tetrahydro-5H-pyrimido[4,5-d]azepine]
Cc1ccccc1C(C(=O)N1CCc2cnc(N3CCN(C4CCC4)CC3)nc2CC1)C(C)C (stereo not drawn) [Compound 351, 2-(4-cyclobutylpiperazin-1-yl)-7-[3-methyl-2-(2-methylphenyl)butanoyl]-6,7,8,9-tetrahydro-5H-pyrimido[4,5-d]azepine]
CCC(C(=O)N1CCc2cnc(N3CCN(C4CCC4)CC3)nc2CC1)c1ccc(OC)cc1 (stereo not drawn) [Compound 352, 2-(4-cyclobutylpiperazin-1-yl)-7-[2-(4-methoxyphenyl)butanoyl]-6,7,8,9-tetrahydro-5H-pyrimido[4,5-d]azepine]
O=C(C(c1ccccc1)C1CCCC1)N1CCc2cnc(N3CCN(C4CCC4)CC3)nc2CC1 (stereo not drawn) [Compound 353, 2-(4-cyclobutylpiperazin-1-yl)-7-[cyclopentyl(phenyl)acetyl]-6,7,8,9-tetrahydro-5H-pyrimido[4,5-d]azepine]
O=C(C(c1ccccc1)c1ccccc1)N1CCc2cnc(N3CCN(C4CCC4)CC3)nc2CC1 [Compound 354, 2-(4-cyclobutylpiperazin-1-yl)-7-(diphenylacetyl)-6,7,8,9-tetrahydro-5H-pyrimido[4,5-d]azepine]
O=C(C(c1ccccc1)C1CCCCC1)N1CCc2cnc(N3CCN(C4CCC4)CC3)nc2CC1 (stereo not drawn) [Compound 355, 2-(4-cyclobutylpiperazin-1-yl)-7-[cyclohexyl(phenyl)acetyl]-6,7,8,9-tetrahydro-5H-pyrimido[4,5-d]azepine]
Cc1ccc(C(C(=O)N2CCc3cnc(N4CCN(C5CCC5)CC4)nc3CC2)c2ccccc2)cc1 (stereo not drawn) [Compound 356, 2-(4-cyclobutylpiperazin-1-yl)-7-[(4-methylphenyl)(phenyl)acetyl]-6,7,8,9-tetrahydro-5H-pyrimido[4,5-d]azepine]
CC(C(=O)N1CCc2cnc(N3CCN(C4CCC4)CC3)nc2CC1)(c1ccccc1)c1ccccc1 [Compound 357, 2-(4-cyclobutylpiperazin-1-yl)-7-(2,2-diphenylpropanoyl)-6,7,8,9-tetrahydro-5H-pyrimido[4,5-d]azepine]
O=C(C1c2ccccc2Oc2ccccc21)N1CCc2cnc(N3CCN(C4CCC4)CC3)nc2CC1 [Compound 358, 2-(4-cyclobutylpiperazin-1-yl)-7-(9H-xanthen-9-ylcarbonyl)-6,7,8,9-tetrahydro-5H-pyrimido[4,5-d]azepine]
Cc1cc(C)cc(C(=O)N2CCc3cnc(N4CCN(C5CCC5)CC4)nc3CC2)c1 [Compound 359, 2-(4-cyclobutylpiperazin-1-yl)-7-(3,5-dimethylbenzoyl)-6,7,8,9-tetrahydro-5H-pyrimido[4,5-d]azepine]
Cc1ccc(C(=O)N2CCc3cnc(N4CCN(C5CCC5)CC4)nc3CC2)cc1C [Compound 360, 2-(4-cyclobutylpiperazin-1-yl)-7-(3,4-dimethylbenzoyl)-6,7,8,9-tetrahydro-5H-pyrimido[4,5-d]azepine]
O=C(c1ccc2ccccc2c1)N1CCc2cnc(N3CCN(C4CCC4)CC3)nc2CC1 [Compound 361, 2-(4-cyclobutylpiperazin-1-yl)-7-(2-naphthoyl)-6,7,8,9-tetrahydro-5H-pyrimido[4,5-d]azepine]
CCCc1ccc(C(=O)N2CCc3cnc(N4CCN(C5CCC5)CC4)nc3CC2)cc1 [Compound 362, 2-(4-cyclobutylpiperazin-1-yl)-7-(4-propylbenzoyl)-6,7,8,9-tetrahydro-5H-pyrimido[4,5-d]azepine]
CCCCc1ccc(C(=O)N2CCc3cnc(N4CCN(C5CCC5)CC4)nc3CC2)cc1 [Compound 363, 7-(4-butylbenzoyl)-2-(4-cyclobutylpiperazin-1-yl)-6,7,8,9-tetrahydro-5H-pyrimido[4,5-d]azepine]
CC(C)(C)c1ccc(C(=O)N2CCc3cnc(N4CCN(C5CCC5)CC4)nc3CC2)cc1 [Compound 364, 7-(4-tert-butylbenzoyl)-2-(4-cyclobutylpiperazin-1-yl)-6,7,8,9-tetrahydro-5H-pyrimido[4,5-d]azepine]
